{"source": "patent US20250339409A1", "about": "“USES OF PAN BET INHIBITORS” (VYNE THERAPEUTICS INC., priority 2021, published 2025)", "test_system": "back skin of healthy mice", "assay": "Tolerance assessment of BETi1 0.01% and 1.0% in healthy (non-induced) mice", "type": "in vivo", "conditions": "for Modified PASI Mean score values / PASI Mean score values: female, Balb/c", "method": "Thirty-six (36) female Balb/c mice are weighed and randomly divided into 9 groups (n=4) according to body weight on D1. For mice of native group 1 and tolerance groups 8 and 9, no induction of psoriasis is performed between D1 and D13. Psoriasis is induced in groups 2 to 7 by once daily topical application for 13 days (from day 1 to day 13) of 65 mg of Aldara™ cream (5.0% imiquimod) onto the shaved and epilated back of mice. Before the first treatment, a second randomization of mice of the 6 imiquimod-induced psoriasis groups is performed according to the severity of psoriasis (PASI), and also the body weight of mice. Starting on day 7 and until day 13, 100 mg of test formulations […] and 65 mg of vehicle (groups 1 and […]) are topically administered once daily for 7 consecutive days onto the shaved back skin of mice. Several measurements are taken during treatment period from day 7 to day 14: psoriasis index (PASI), body weight, use of enrichment and mortality. At the end of treatment period, TEWL is assessed, and blood and skin samples are collected. Histological analysis of skin samples is used for microscopic scoring of psoriasis and the determination of the thickness of parakeratosis and epidermis and blood analysis is used for assessing the level of proinflammatory biomarkers (cytokines assays). The effect of treatment of psoriasis induced mice with BETi formulations at the four dose levels are compared with Dermoval® cream containing 0.05% clobetasol propionate (reference) and vehicle (positive control) and also with healthy mice treated with vehicle (negative control).\nThe tolerance assessment to treatments with 0.01% and 1.0% BETi is performed daily during the treatment period (D7 to D13) as well as on the day mice are sacrifice (D14), and takes into account the following 5 parameters:\nThe presence of erythema on the skin with the following scoring grid: • 0=no or no more erythema on the skin, • 1=weak erythema on the skin, • 2=moderate erythema on the skin, • 3=important erythema on the skin, • 4=severe erythema on the skin.\nThe presence of induration of the skin with the following scoring grid: • 0=no or no more induration of the skin, • 1=weak induration of the skin, • 2=moderate induration of the skin, • 3=important induration of the skin, • 4=severe induration of the skin.\nThe presence of ulceration of the skin with the following scoring grid: • 0=no or no more ulceration of the skin, • 1=weak ulceration of the skin, • 2=moderate ulceration of the skin, • 3=important ulceration of the skin, • 4=severe ulceration of the skin.\nThe presence of necrosis of the skin with the following scoring grid: • 0=no or no more necrosis of the skin, • 1=weak necrosis of the skin, • 2=moderate necrosis of the skin, • 3=important necrosis of the skin, • 4=severe necrosis of the skin.\nThe presence of peeling of the skin with the following scoring grid: • 0=no or no more peeling of the skin, • 1=weak peeling of the skin, • 2=moderate peeling of the skin, • 3=important peeling of the skin, • 4=severe peeling of the skin.\nThe investigation addressed, amongst other things, the effect of the different BETi1 concentrations (0.001%, 0.01%, 0.1% and 1.0%) on various parameters. Tolerance was tested at two BETi1 concentrations (0.01% and 1%) in healthy mice.", "data": [{"smiles": "Cn1cc(-c2cccc(O)c2Oc2ccccc2)c2cc[nH]c2c1=O", "note": "[BETi1]", "values": [{"measurement": "Body weight, individual mouse", "setting": "Tolerance, healthy mice, D 1, listed as BETi1 1.0%", "value": 18.49}, {"measurement": "Mean body weights", "setting": "Tolerance, healthy mice, D 11, listed as BETi1 1.0%", "value": 18.97}, {"measurement": "Body weight, individual mouse", "setting": "Tolerance, healthy mice, D 14, listed as BETi1 1.0%", "value": 19.58}, {"measurement": "Modified PASI Mean score values", "setting": "mouse, in vivo", "value": 0.00}, {"measurement": "Modified PASI Mean score values", "setting": "mouse, in vivo, 1 study day", "value": 0.00}, {"measurement": "PASI Mean score values", "setting": "mouse, in vivo, 2 study day", "value": 0.00}, {"measurement": "PASI Mean score values", "setting": "mouse, in vivo, 3 study day", "value": 0.00}, {"measurement": "PASI Mean score values", "setting": "mouse, in vivo, 4 study day", "value": 0.00}, {"measurement": "PASI Mean score values", "setting": "mouse, in vivo, 5 study day", "value": 0.00}, {"measurement": "PASI Mean score values", "setting": "mouse, in vivo, 6 study day", "value": 0.00}, {"measurement": "PASI Mean score values", "setting": "mouse, in vivo, 7 study day", "value": 0.00}, {"measurement": "PASI Mean score values", "setting": "mouse, in vivo, 8 study day", "value": 0.00}, {"measurement": "Modified PASI Mean score values", "setting": "mouse, in vivo, 9 study day", "value": 0.00}, {"measurement": "PASI Mean score values", "setting": "mouse, in vivo, 9 study day", "value": 0.00}, {"measurement": "Modified PASI Mean score values", "setting": "mouse, in vivo, 10 study day", "value": 0.00}, {"measurement": "PASI Mean score values", "setting": "mouse, in vivo, 10 study day", "value": 0.00}, {"measurement": "Modified PASI Mean score values", "setting": "mouse, in vivo, 11 study day", "value": 0.00}, {"measurement": "PASI Mean score values", "setting": "mouse, in vivo, 11 study day", "value": 0.00}, {"measurement": "Modified PASI Mean score values", "setting": "mouse, in vivo, 12 study day", "value": 0.00}, {"measurement": "PASI Mean score values", "setting": "mouse, in vivo, 12 study day", "value": 0.00}, {"measurement": "Modified PASI Mean score values", "setting": "mouse, in vivo, 13 study day", "value": 0.00}, {"measurement": "PASI Mean score values", "setting": "mouse, in vivo, 13 study day", "value": 0.00}, {"measurement": "Modified PASI Mean score values", "setting": "mouse, in vivo, 14 study day", "value": 0.00}, {"measurement": "PASI Mean score values", "setting": "mouse, in vivo, 14 study day", "value": 0.00}, {"measurement": "local skin reaction to treatment", "setting": "mouse, in vivo", "value": "did not experience any noticeable local skin reaction"}]}]}
